The values that follow come from patent US10662218B2, “Analogs of celastrol” (ERX Pharmaceuticals, Inc., priority 2015, dated 2020).

Converted amounts (≈) assume the structure as drawn. “And” between values parts separate entries of the source, which are not always exact repeats. Equal values may be shown once. Read-outs that look alike come from different tables or passages of the source.

The test system of data set [1] is C57BL/6 Diet Induced Obese (DIO) mice. Briefly: Oral (P.O.) administration study in DIO mice: animal fate (mortality) and clinical observations. The settings on record: 2 mg/kg. As for the experimental part:
Male C57BL/6 DIO mice were assigned to 12 groups, and doses of 2 mg/kg Celastrol (ERX1000-4), ERX1006, ERX1007, ERX1037, ERX1060, ERX1077, ERX1107, ERX1149, ERX1168, ERX1177, and Pristimerin were administered to Groups 2 through 12, respectively. Animals were dosed via oral gavage once daily for 10 days at a volume of 2 mL/kg. The vehicle control article was 1% methyl cellulose (400 cps) in citric acid and phosphate buffer.
Parameters assessed included mortality, clinical observations, body weights and food consumption and blood glucose evaluations.
All animals were anesthetized via carbon dioxide, sacrificed, and discarded without further evaluation on Day 11.

The test system is the same in data set [2]. Briefly: Oral (P.O.) administration study in DIO mice: in vivo activity, body weights. On the set-up: species or system mouse. To be noted: for change in vivo at 2 mg/kg: Mus musculus, po, read-out: Body weight, %-Diff; for Individual Body Weight: individual male animals. From the text: The purpose of this study was to assess test articles in the Diet Induced Obese (DIO) mouse.
Male C57BL/6 Diet Induced Obese (DIO) mice were received from Taconic. Animals were acclimated to housing conditions for at least 1 week prior to vehicle acclimation dosing. Animals were acclimated to oral gavage dosing with vehicle once daily for Days 11 through 14 of the predose phase.
At initiation of dosing, animals were 21 to 22 weeks old, and their body weights ranged from 29.8 to 40.1 g.
Dose formulations were administered by oral gavage once daily for 10 days at a dose volume of 2 mL/kg. Doses were based on the most recently recorded scheduled body weight.
Body weights were recorded daily on Days 11 through 14 of the predose phase. Body weights were collected for all animals daily during the dosing phase prior to dosing.
Descriptive statistics (n, mean, standard error of the mean, standard deviation) were completed. Additionally, one-way analysis of variance followed by Dunnett's post-hoc test were performed on body weight (cumulative body weight change), glucose (glucose percent change), and food consumption (cumulative food consumption). Area under the curve (for body weight, cumulative body weight change, daily body weight change, and food consumption) was computed for treatment groups. An appropriate comparison test, such as one-way analysis of variance and Dunnett's, was performed on the group means for the area under the curve computations. Any additional statistical analysis and interpretation of the results were the responsibility of the sponsor.

A further data set is described as follows: physchem. The settings on record: pH 7.4, aqueous buffer, kinetic from dmso stock, PBS (pH 7.4). As for the experimental part:
• Test concentration: 100 μM (1% of DMSO) • Test systems: PBS (pH 7.4) • Incubation condition: shaken (1000 rpm) for 1 h at room temperature • Sample size: Duplicates (n=2) • Bioanalytical method: LC-MS/MS

[3] abbreviates: DIO mice, male, 2 mg/kg, phase DSNG, Day 7.
[4] abbreviates: DIO mice, male, 2 mg/kg, phase DSNG, Day 8.
Setting [5] is: DIO mice, male, 2 mg/kg, phase DSNG, Day 9.
The mark [6] stands for this setting: DIO mice, male, 2 mg/kg, phase DSNG, Day 10.
Setting [7] is: DIO mice, male, 2 mg/kg, phase DSNG, Day 11.
Setting [8] is: Day 1, DSNG phase, 2 mg/kg, male, N=5.
The mark [9] stands for this setting: Day 2, DSNG phase, 2 mg/kg, male, N=5.
[10] abbreviates: Day 3, DSNG phase, 2 mg/kg, male, N=5.
The mark [11] stands for this setting: Day 4, DSNG phase, 2 mg/kg, male, N=5.
[12] abbreviates: Day 5, DSNG phase, 2 mg/kg, male, N=5.
Setting [13] is: Day 6, DSNG phase, 2 mg/kg, male, N=5.

Consider `COC(=O)[C@]1(C)CC[C@]2(C)CC[C@]3(C)C4=CC=C5C(=CC(=O)C(O)=C5C)[C@]4(C)CC[C@@]3(C)[C@@H]2C1` [Pristimerin, reference compound], for which the “Individual Animal Fate: Fate Status” value in data set [1] (individual male DIO mouse, phase of fate Dosing, phase week 2, phase day 11) is “Scheduled Sacrifice”. For the same compound, the “Body weight, Mean” value in data set [2] (setting [3]) was found to be 33.5 g; in data set [2] (setting [4]), 33.1 g; in data set [2] (setting [5]), 32.9 g; in data set [2] (setting [6]), 33.2 g; in data set [2] (setting [7]), 33.9 g; in data set [2] (setting [8]), 34.2 g. Besides, the “Body weight, Mean” value in data set [2] (setting [9]) is on record as 34.0 g; in data set [2] (setting [10]), 33.7 g; in data set [2] (setting [11]) it was 33.3 g; in data set [2] (setting [12]) it was 33.3 g; in data set [2] (setting [13]) it was 33.4 g. The change in vivo at 2 mg/kg in data set [2] (24 h) was 0%; in data set [2] (48 h), -1%; in data set [2] (72 h), -1%; in data set [2] (96 h), 0%; in data set [2] (120 h) it was -1%; in data set [2] (144 h) it was 0%. For the same compound, the change in vivo at 2 mg/kg in data set [2] (168 h) is 0%; in data set [2] (192 h), -2%; in data set [2] (216 h), -1%; in data set [2] (240 h), -1%; in data set [2] (264 h), -1%. In addition, the “Individual Body Weight, PRED 11” value in data set [2] (individual male DIO mouse of the 2 mg/kg group, pre-dose phase day 11 (baseline)) was 42.4 g and 35.2 g and 31.7 g and 38.2 g and 33.9 g. For the same compound, the “Individual Body Weight, PRED 12” value in data set [2] (individual male DIO mouse of the 2 mg/kg group, pre-dose phase day 12 (baseline)) was 41.2 g and 34.5 g and 31.0 g and 37.5 g and 32.5 g. The “Individual Body Weight, PRED 13” value in data set [2] (individual male DIO mouse of the 2 mg/kg group, pre-dose phase day 13 (baseline)) was 41.3 g and 33.4 g and 31.4 g and 37.3 g and 32.9 g. For the same compound, the “Individual Body Weight, PRED 14” value in data set [2] (individual male DIO mouse of the 2 mg/kg group, pre-dose phase day 14 (baseline)) is 41.9 g and 35.0 g and 31.6 g and 37.6 g and 33.1 g. Also, the “Individual Body Weight, DSNG 1” value in data set [2] (individual male DIO mouse, 2 mg/kg, dosing phase day 1, 2 mg/kg) was 40.0 g and 33.3 g and 29.8 g and 35.5 g and 32.3 g. Besides, the “Individual Body Weight, DSNG 2” value in data set [2] (individual male DIO mouse, 2 mg/kg, dosing phase day 2, 2 mg/kg) is 39.4 g and 33.1 g and 30.2 g and 35.4 g and 32.1 g.

For the compound `CC(=O)N(C)C[C@]1(C)CC[C@]2(C)CC[C@]3(C)C4=CC=C5C(=CC(=O)C(O)=C5C)[C@]4(C)CC[C@@]3(C)[C@@H]2C1` [ERX1149], the “Individual Animal Fate: Fate Status” value in data set [1] (mouse, in vivo) is reported as “Scheduled Sacrifice”. The “Individual Body Weight” value in data set [2] (2 mg/kg, Phase Day DSNG 1) was 33.3 g and 35.8 g and 39.7 g and 31.5 g and 34.3 g; in data set [2] (2 mg/kg, Phase Day DSNG 2), 32.2 g and 34.8 g and 39.9 g and 31.7 g and 34.1 g; in data set [2] (2 mg/kg, Phase Day PRED 11 (pre-dose baseline)), 33.3 g and 38.3 g and 41.4 g and 33.7 g and 35.6 g; in data set [2] (2 mg/kg, Phase Day PRED 12 (pre-dose baseline)), 33.3 g and 37.3 g and 41.5 g and 33.4 g and 36.3 g; in data set [2] (2 mg/kg, Phase Day PRED 13 (pre-dose baseline)), 33.1 g and 36.8 g and 41.4 g and 32.3 g and 35.2 g; in data set [2] (2 mg/kg, Phase Day PRED 14 (pre-dose baseline)), 33.5 g and 36.1 g and 41.0 g and 32.5 g and 36.5 g. Besides, the “Body weight, Mean” value amounted to 32.8 g in data set [2] (setting [3]); 33.3 g in data set [2] (setting [4]); 33.1 g in data set [2] (setting [5]); 33.5 g in data set [2] (setting [6]); 33.6 g in data set [2] (setting [7]); 34.9 g in data set [2] (setting [8]). Further, the “Body weight, Mean” value is on record as 34.5 g in data set [2] (setting [9]); 34.1 g in data set [2] (setting [10]); 34.0 g in data set [2] (setting [11]); 33.5 g in data set [2] (setting [12]); 33.1 g in data set [2] (setting [13]). Further, the change in vivo at 2 mg/kg in data set [2] (24 h, Day 1, DSNG phase, 2 mg/kg, male, difference of group mean) is 2%; in data set [2] (48 h, Day 2, DSNG phase, 2 mg/kg, male, difference of group mean), 0%; in data set [2] (72 h, Day 3, DSNG phase, 2 mg/kg, male, difference of group mean), 1%; in data set [2] (96 h, Day 4, DSNG phase, 2 mg/kg, male, difference of group mean), 2%; in data set [2] (120 h, Day 5, DSNG phase, 2 mg/kg, male, difference of group mean), -1%; in data set [2] (144 h, Day 6, DSNG phase, 2 mg/kg, male, difference of group mean), -1%. In addition, the change in vivo at 2 mg/kg in data set [2] (168 h, DIO mice, male, 2 mg/kg, phase DSNG, Day 7, difference of group mean from vehicle group 1) was -2%; in data set [2] (192 h, DIO mice, male, 2 mg/kg, phase DSNG, Day 8, difference of group mean from vehicle group 1), -1%; in data set [2] (216 h, DIO mice, male, 2 mg/kg, phase DSNG, Day 9, difference of group mean from vehicle group 1), 0%; in data set [2] (240 h, DIO mice, male, 2 mg/kg, phase DSNG, Day 10, difference of group mean from vehicle group 1) it was 0%; in data set [2] (264 h, DIO mice, male, 2 mg/kg, phase DSNG, Day 11, difference of group mean from vehicle group 1), -1%.

As a reminder, the solubility is the concentration that dissolves in the medium under given conditions. High values mean much dissolved substance, low ones little dissolved substance. For the compound `CC1=C(O)C(=O)C=C2C1=CC=C1[C@@]2(C)CC[C@@]2(C)[C@@H]3C[C@](C)(C(=O)N(C)C)CC[C@]3(C)CC[C@]12C` [ERX1008], in data set [2] (2 mg/kg oral gavage once daily for 10 days, compared with controls), the “cumulative body weight change” value is on record as “statistically significant decreases”. The solubility in the data set “physchem” (Solubility (μM) Mean, Table 6-B, test concentration 100 μM (1% of DMSO), shaken (1000 rpm) 1 h at room temperature, n = 2) stood at 0.08 µM (≈ 0.0382 µg/mL); in the data set “physchem” (Solubility (μM), Table 6-D) it was 0.0841 µM (≈ 0.0402 µg/mL).
